We go through 3 compounds from patent US20030212147A1, “Enzyme activated chemotherapy of liver cancer” (priority 2003, published 2003).

Entries after “also recorded” stand apart in the source; their conditions may differ.

The subject of one data set is HepG2 cells. In words: LDH-release cytotoxicity assay in HepG2 cells cultured in isotonic or hypertonic (AR-inducing) medium. Type of data set: cell-based, human. The conditions noted are these: for effect on HepG2 cells (LDH release): 50 μM ND; for toxic effect (LDH released into the medium): 5 hours. As for the experimental part:
HepG2 cells, a human liver cell line, were purchased from the American Type Culture Collection (Rockville, Md.). The basic (isotonic) medium was MEM medium supplemented with 10% fetal bovine serum, 100 U/ml penicillin, 100 μg/ml streptomycin, 0.1 mM MEM non-essential amino acids, and 1 mM sodium pyruvate. Medium was made hypertonic by adding NaCl to 100 mM, and the osmolarity was about 500 mosmol/kg as determined by osmometer. ND was dissolved in 20% ethanol to make a 50 mM stock solution. NQ was dissolved in 100% ethanol to make a 50 mM stock solution. AL1576 was dissolved in 20 mM NaOH to make a 20 mM stock solution.
Cells were first cultured in isotonic medium until 70% confluent. The medium was then made hypertonic by NaCl and incubated for 72 hours. The cells were then seeded onto 24-well plate at 8×10^4 cells/well and incubated for 24 hours in hypertonic medium. Cells for isotonic control were processed in parallel except that no NaCl was added. ND and AR inhibitor AL1576 were added as indicated.
Cytotoxicity was measured by the percent of LDH (lactate dehydrogenase) released into the medium. LDH activity was determined by Cytotoxicity Detection Kit. The optical density of the colored product was measured at 492 and 690 nm by SpectraMax 340 Microplate reader (Molecular Devices). LDH released into the medium was measured by taking samples of the medium. Total LDH was determined by taking samples of cell extracts lysed by Triton X-100 at a final concentration of 1%.
Background: LDH in the medium is a marker of cell lysis.

For data set [1] the following is noted: rabbit cataract model; taken as the likely toxic level for oral administration; cited from earlier work.
Data set [2] is classed as physicochemical. From the text:
Naphthalene is insoluble in water. […] Accordingly, ND, the metabolized product of naphthalene (see FIG. 1), rather than naphthalene, was used to test the cytotoxic activity of the drug that is activated AR overproduced by HepG2 cells.

`O=C1NC(=O)C2(N1)c1cc(F)ccc1-c1ccc(F)cc12` [AL1576, 2,7-difluorospirofluorene-9,5′-imidazolidine-2′4′-dione, reference compound]: the “protection of HepG2 cells against the toxic effects of ND by the AR inhibitor” value in the data set on HepG2 cells (HepG2 cells in hypertonic medium with ND) is recorded as “can protect these cells against the toxic effects of ND”.
On to `OC1C=Cc2ccccc2C1O` (stereo not shown) [ND, naphthalene-1,2-dihydrodiol], for which the “effect on HepG2 cells (LDH release)” value with HepG2 cells (hypertonic medium) and with HepG2 cells (isotonic medium) was “no effect” each time. Further, the “toxic effect (LDH released into the medium)” value with HepG2 cells (500 μM ND, HepG2 cells in hypertonic medium (AR overexpressed)) is listed as “highly toxic”; in the data set with HepG2 cells (500 μM ND, HepG2 cells in isotonic medium), “no sign of toxic effects; also recorded: no toxic effect”. Moreover, the “LDH released relative to that released by control cells (isotonic medium)” value in the data set on HepG2 cells (500 μM ND, hypertonic versus isotonic medium) is “more than 10 times”. Besides, the “sensitivity of HepG2 cells to ND in hypertonic versus isotonic medium” value in the data set with HepG2 cells (hypertonic versus isotonic medium) amounted to 10 times.
In the case of `c1ccc2ccccc2c1` [Naphthalene], the “dose at which cataract and degeneration of the retina develop” value in data set [1] is on record as “about 1 g/kg body weight”. Besides, in data set [2], the “behaviour when added to the medium” value was “quickly precipitates” and the solubility in water entry was “insoluble”.
